Literature values in patent publication US6736837B2, “Method for inducing hypothermia for treating neurological disorders” (priority 1997, dated 2004).
Like-named read-outs stand apart in the source and are kept apart here.

Test system: tumors
Conditions: for effect on tumor size: same dose

## O=c1[nH]cc(F)c(=O)[nH]1 [5-FU, 5-fluoruracil]
hamsters, 50 mg/kg, during hypothermia with the tumors maintained at normal body temperature
  effect on tumors: regression and disappearance of tumors
Hypothermic animals whose tumors were also hypothermic
  effect on tumor size: did not affect tumor size
tumor-bearing animals that were not made hypothermic
  effect on tumor size: did not affect tumor size
